Data published in patent US20220354811A1, “METHODS AND COMPOSITIONS FOR MODULATING MACROPHAGES POLARIZATION” (INSERM (INSTITUT NATIONAL DE LA SANTÉ ET DE LA RECHERCHE …, priority 2019, published 2022).

Target: caspase-8 (Homo sapiens, UniProt Q14790)
Experiment: Caspase-8 activity in cellulo in CSF-1-differentiating monocytes (flow cytometry, IETD)
Format: cell-based
Parameters: endogenous in cells; host or cells: primary human peripheral blood monocytes exposed to CSF-1
Conditions: CSF-1 2 days
From the text: FIG. 5. […] Caspases activities from 3 different healthy donors was examined by flow cytometry analysis. The results are expressed as percentage of IETD or DEVD positive cells and represent the mean±SD of 3 independent experiments performed in duplicate. n.s. denotes not statistically significant according to a paired student t test. *P<0.05, **P<0.01, ***P<0.001 according to a paired student t test (versus d2). Asterisks indicate cleavage fragments. Each panel is representative of at least 3 independent experiments.
To analyze the macrophagic differentiation of monocytes, the cells were washed with ice-cold phosphate buffered saline (PBS, Life Technologies, 14190169), incubated at 4° C. for 10 min in PBS/bovine serum albumin (BSA 0.5%, Dutscher, 871002) with anti-CD16, anti-CD71 and anti-CD163 or isotype controls (Miltenyi and BD Biosciences, catalog numbers were 130-113-396, 130-097-628 and 551374). […] Fluorescence was measured with a MACSQuant® Analyzer (Miltenyi, Paris, France). […] Fluorescence was measured with a MACSQuant® Analyzer (Miltenyi, Paris, France). […] Fluorescence, that indicate the internalization of particles, was measured with a MACSQuant® Analyzers (Miltenyi, France). Trypan blue solution was used to quench the fluorescence from particles that were not internalized. […]
After 2 days, caspase-8 activity was assessed by flow cytometry using Ac-IETD-FITC as substrate (data not shown).

Chain of caspase-8 (Q14790 217-479): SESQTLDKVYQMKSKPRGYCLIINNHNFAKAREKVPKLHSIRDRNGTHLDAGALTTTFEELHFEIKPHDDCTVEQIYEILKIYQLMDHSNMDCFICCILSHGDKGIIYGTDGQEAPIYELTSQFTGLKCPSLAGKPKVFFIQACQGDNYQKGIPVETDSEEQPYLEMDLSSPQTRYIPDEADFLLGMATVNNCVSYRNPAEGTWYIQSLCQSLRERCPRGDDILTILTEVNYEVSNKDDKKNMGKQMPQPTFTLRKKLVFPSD

Row | SMILES | single dose that abrogated caspase-8 activity in cellulo (flow cytometry) | effect on caspase-8 activity in cellulo (added twice at 100 μM)
1 | C[C@H](NC(=O)C(=O)Nc1ccccc1C(C)(C)C)C(=O)N[C@@H](CC(=O)O)C(=O)COc1c(F)c(F)cc(F)c1F [Emricasan, (S)-3-((S)-2-(2-((2-(tert-Butyl)phenyl)amino)-2-oxoacetamido)propanamido)-4-oxo-5-(2,3,5,6-tetrafluorophenoxy)pentanoic acid] | 2 µM | 
2 | CC(C)[C@H](NC(=O)c1ccc2ccccc2n1)C(=O)N[C@@H](CC(=O)O)C(=O)COc1c(F)cccc1F [Q-VD-OPh] |  | strong inhibition
